The values below come from ChEMBL document CHEMBL5500342, “Rational molecular design converting fascaplysin derivatives to potent broad-spectrum inhibitors against bacterial pathogens via targeting FtsZ” (Eur J Med Chem, 2024).

≈ marks a conversion by molar mass, not a printed value.

One experiment concerns Pseudomonas aeruginosa. The experiment in a line: Antibacterial activity against Pseudomonas aeruginosa BNCC337940 assessed as inhibition of bacterial growth incubated for 18 hrs by CLSI protocol based microbroth dilution method. It is filed as functional. For orientation: Dilution methods test growth across graded concentrations, often in twofold steps.
The test system of a further experiment is Bacillus subtilis. The experiment in a line: Antibacterial activity against Bacillus subtilis BNCC336690 assessed as inhibition of bacterial growth incubated for 18 hrs by CLSI protocol based microbroth dilution method. It counts as functional.
Experiment [1] deals with Escherichia coli. The experiment in a line: Antibacterial activity against penicillin-susceptible Escherichia coli ATCC25922. It counts as functional.
In experiment [2] the test system is Staphylococcus aureus. Nature of the experiment: Antibacterial activity against methicillin-resistant Staphylococcus aureus ATCC43300. It counts as functional.
A further experiment deals with Streptococcus pneumoniae. Nature of the experiment: Antibacterial activity against Streptococcus pneumoniae ATCC49619 assessed as inhibition of bacterial growth incubated for 18 hrs by CLSI protocol based microbroth dilution method. It counts as functional.
A further experiment has as its system Salmonella enteritidis. The experiment in a line: Antibacterial activity against Salmonella enteritidis BNCC281091 assessed as inhibition of bacterial growth incubated for 18 hrs by CLSI protocol based microbroth dilution method. It is filed as functional, Salmonella enterica subsp. enterica serovar Enteritidis. As to conditions: Salmonella enterica.
Experiment [3] deals with Staphylococcus aureus. The experiment in a line: Antibacterial activity against methicillin-resistant Staphylococcus aureus ATCC43300 assessed as inhibition of bacterial growth incubated for 18 hrs by CLSI protocol based microbroth dilution method. It is filed as functional.
In experiment [4] the test system is Escherichia coli. Nature of the experiment: Antibacterial activity against penicillin-susceptible Escherichia coli ATCC25922 assessed as inhibition of bacterial growth incubated for 18 hrs by CLSI protocol based microbroth dilution method. It counts as functional.
Experiment [5] relates to Staphylococcus aureus. Nature of the experiment: Bactericidal activity against methicillin-resistant Staphylococcus aureus ATCC43300 incubated for 24 hrs by CLSI protocol based microbroth dilution method. It counts as functional.
Experiment [6] is described as follows: Selectivity ratio of MBC for bactericidal activity against penicillin-susceptible Escherichia coli ATCC25922 to MIC for antibacterial activity against penicillin-susceptible Escherichia coli ATCC25922. It counts as functional.
The test system of experiment [7] is Staphylococcus aureus. Nature of the experiment: Selectivity ratio of MBC for bactericidal activity against methicillin-resistant Staphylococcus aureus ATCC43300 to MIC for antibacterial activity against methicillin-resistant Staphylococcus aureus ATCC43300. It counts as functional.
Experiment [8] has as its system Escherichia coli. Nature of the experiment: Bactericidal activity against penicillin-susceptible Escherichia coli ATCC25922 incubated for 24 hrs by CLSI protocol based microbroth dilution method. It is filed as functional.

Usually MIC stands for the least concentration at which growth counts as inhibited. For `O=C1c2ccccc2-[n+]2ccc3c([nH]c4ccc(-c5ccccc5)cc43)c21.[Cl-]`, the minimal inhibitory concentration (MIC) in the experiment with Pseudomonas aeruginosa is 200 µg/mL; in the experiment with Bacillus subtilis, 0.195 µg/mL; in the experiment on Escherichia coli [1], 3.12 µg/mL; against Staphylococcus aureus [2], 0.78 µg/mL; with Streptococcus pneumoniae, 0.195 µg/mL; with Salmonella enteritidis it was more than 200 µg/mL.
In the case of `Cc1ccc(-c2ccc3[nH]c4c5[n+](ccc4c3c2)-c2ccccc2C5=O)cc1C.[Cl-]`, the MIC is 6.25 µg/mL with Staphylococcus aureus [3]; more than 200 µg/mL in the experiment on Pseudomonas aeruginosa; more than 200 µg/mL in the experiment with Escherichia coli [4]; 0.195 µg/mL in the experiment on Bacillus subtilis; 0.78 µg/mL with Streptococcus pneumoniae; more than 200 µg/mL with Salmonella enteritidis.
On to `Cc1ccc(-c2ccc3[nH]c4c5[n+](ccc4c3c2)-c2ccccc2C5=O)cc1.[Cl-]`, for which the MIC with Pseudomonas aeruginosa is more than 200 µg/mL; in the experiment with Bacillus subtilis it was 0.195 µg/mL; in the experiment on Escherichia coli [1], 12.5 µg/mL; with Staphylococcus aureus [2] it was 0.39 µg/mL; in the experiment with Streptococcus pneumoniae, 0.195 µg/mL; in the experiment on Salmonella enteritidis, more than 200 µg/mL.
`COc1ccc(-c2ccc3[nH]c4c5[n+](ccc4c3c2)-c2ccccc2C5=O)cc1.[Cl-]`: the MIC with Pseudomonas aeruginosa is more than 200 µg/mL; in the experiment on Bacillus subtilis it was 0.195 µg/mL; in the experiment with Escherichia coli [1], 25 µg/mL; in the experiment on Staphylococcus aureus [2], 0.78 µg/mL; with Streptococcus pneumoniae, 0.195 µg/mL; in the experiment with Salmonella enteritidis it was more than 200 µg/mL.
Regarding `COc1cccc(-c2ccc3[nH]c4c5[n+](ccc4c3c2)-c2ccccc2C5=O)c1.[Cl-]`, the minimum inhibitory concentration (MIC) is more than 200 µg/mL with Pseudomonas aeruginosa; 0.195 µg/mL in the experiment with Bacillus subtilis; 12.5 µg/mL against Escherichia coli [1]; 0.39 µg/mL in the experiment on Staphylococcus aureus [2]; 0.39 µg/mL in the experiment with Streptococcus pneumoniae; more than 200 µg/mL with Salmonella enteritidis.
Take `O=C1c2ccccc2-[n+]2ccc3c([nH]c4ccc(-c5cc(F)cc(F)c5)cc43)c21.[Cl-]`: the MIC is 3.12 µg/mL in the experiment with Staphylococcus aureus [3]; more than 200 µg/mL in the experiment with Pseudomonas aeruginosa; 12.5 µg/mL in the experiment on Escherichia coli [4]; 0.195 µg/mL in the experiment on Bacillus subtilis; 0.195 µg/mL in the experiment on Streptococcus pneumoniae; more than 200 µg/mL in the experiment with Salmonella enteritidis.
For the compound `Cc1cccc(-c2ccc3[nH]c4c5[n+](ccc4c3c2)-c2ccccc2C5=O)c1.[Cl-]`, the MIC was 0.39 µg/mL in the experiment on Staphylococcus aureus [3]; more than 200 µg/mL with Pseudomonas aeruginosa; more than 200 µg/mL in the experiment on Escherichia coli [4]; 0.195 µg/mL in the experiment with Bacillus subtilis; 0.195 µg/mL with Streptococcus pneumoniae; more than 200 µg/mL in the experiment with Salmonella enteritidis.
For the compound `O=C1c2ccccc2-[n+]2ccc3c([nH]c4ccc(-c5ccc(F)cc5)cc43)c21.[Cl-]`, the MIC was more than 200 µg/mL in the experiment with Pseudomonas aeruginosa; 0.195 µg/mL in the experiment with Bacillus subtilis; 6.25 µg/mL against Escherichia coli [1]; 1.56 µg/mL against Staphylococcus aureus [2]; 0.195 µg/mL in the experiment with Streptococcus pneumoniae; more than 200 µg/mL in the experiment with Salmonella enteritidis.
Regarding `O=C1c2ccccc2-[n+]2ccc3c([nH]c4ccc(-c5ccc(F)cc5F)cc43)c21.[Cl-]`, the minimum inhibitory concentration (MIC) with Pseudomonas aeruginosa was more than 200 µg/mL; with Bacillus subtilis it was 0.195 µg/mL; in the experiment with Escherichia coli [1], 1.56 µg/mL; in the experiment with Staphylococcus aureus [2], 0.195 µg/mL; with Streptococcus pneumoniae it was 0.195 µg/mL; with Salmonella enteritidis it was more than 200 µg/mL.
Turning to `CCCc1ccc(-c2ccc3[nH]c4c5[n+](ccc4c3c2)-c2ccccc2C5=O)cc1.[Cl-]`, the minimal inhibitory concentration (MIC) with Staphylococcus aureus [3] was 1.56 µg/mL; in the experiment with Pseudomonas aeruginosa, more than 200 µg/mL; in the experiment with Escherichia coli [4], more than 200 µg/mL; in the experiment on Bacillus subtilis, 0.195 µg/mL; in the experiment with Streptococcus pneumoniae, 0.195 µg/mL; with Salmonella enteritidis, more than 200 µg/mL.
Broadly, the MBC is the smallest concentration meeting the test's criterion for killing. Low readings indicate greater bactericidal potency, high ones weaker bactericidal potency. Take `O=C1c2ccccc2-[n+]2ccc3c([nH]c4ccccc43)c21` [FASCAPLYSIN]: the values for the minimum inhibitory concentration (MIC) with Staphylococcus aureus [3] and in the experiment with Escherichia coli [4] were 0.78 µg/mL and 12.5 µg/mL, respectively. In addition, the minimal bactericidal concentration (MBC) in the experiment with Staphylococcus aureus [5] was 1.56 µg/mL; against Escherichia coli [8], 25 µg/mL. In addition, the Selectivity ratio (in experiment [6]; in the experiment on Staphylococcus aureus [7]) was 2 in each case.
Take `O=C1c2ccccc2-[n+]2ccc3c([nH]c4ccc(-c5ccc(Cl)cc5)cc43)c21.[Cl-]`: the MIC in the experiment with Staphylococcus aureus [3] is 1.56 µg/mL; in the experiment with Pseudomonas aeruginosa, more than 200 µg/mL; with Escherichia coli [4], more than 200 µg/mL; with Bacillus subtilis it was 0.195 µg/mL; in the experiment on Streptococcus pneumoniae, 0.39 µg/mL; in the experiment with Salmonella enteritidis, more than 200 µg/mL.
As to `O=C1c2ccccc2-[n+]2ccc3c([nH]c4ccc(-c5cccc(Cl)c5)cc43)c21.[Cl-]`, the minimum inhibitory concentration (MIC) with Staphylococcus aureus [3] is 0.39 µg/mL; in the experiment with Pseudomonas aeruginosa, more than 200 µg/mL; in the experiment with Escherichia coli [4] it was 25 µg/mL; with Bacillus subtilis, 0.195 µg/mL; in the experiment on Streptococcus pneumoniae it was 0.195 µg/mL; in the experiment on Salmonella enteritidis, more than 200 µg/mL.
On to `CCc1ccc(-c2ccc3[nH]c4c5[n+](ccc4c3c2)-c2ccccc2C5=O)cc1.[Cl-]`, for which the minimal inhibitory concentration (MIC) with Staphylococcus aureus [3] was 1.56 µg/mL; with Pseudomonas aeruginosa, more than 200 µg/mL; with Escherichia coli [4], more than 200 µg/mL; in the experiment with Bacillus subtilis, 0.195 µg/mL; in the experiment on Streptococcus pneumoniae it was 0.195 µg/mL; in the experiment with Salmonella enteritidis, more than 200 µg/mL.
Turning to `O=C1c2ccccc2-[n+]2ccc3c([nH]c4ccc(-c5ccc(C(F)(F)F)cc5)cc43)c21.[Cl-]`, the MIC is more than 200 µg/mL with Pseudomonas aeruginosa; 0.195 µg/mL in the experiment with Bacillus subtilis; 1.56 µg/mL against Escherichia coli [1]; 0.39 µg/mL against Staphylococcus aureus [2]; 1.56 µg/mL in the experiment with Streptococcus pneumoniae; more than 200 µg/mL with Salmonella enteritidis.
For `CCCCc1ccc(-c2ccc3[nH]c4c5[n+](ccc4c3c2)-c2ccccc2C5=O)cc1.[Cl-]`, the minimal inhibitory concentration (MIC) in the experiment on Staphylococcus aureus [3] was 6.25 µg/mL; in the experiment on Pseudomonas aeruginosa, more than 200 µg/mL; in the experiment with Escherichia coli [4] it was more than 200 µg/mL; in the experiment on Bacillus subtilis, 1.56 µg/mL; in the experiment with Streptococcus pneumoniae, 0.78 µg/mL; in the experiment with Salmonella enteritidis, more than 200 µg/mL.
For the compound `CN[C@H](CC(C)C)C(=O)N[C@H]1C(=O)N[C@@H](CC(N)=O)C(=O)N[C@H]2C(=O)N[C@H]3C(=O)N[C@H](C(=O)N[C@H](C(=O)O)c4cc(O)cc(O)c4-c4cc3ccc4O)[C@H](O)c3ccc(c(Cl)c3)Oc3cc2cc(c3O[C@@H]2O[C@H](CO)[C@@H](O)[C@H](O)[C@H]2O[C@H]2C[C@](C)(N)[C@H](O)[C@H](C)O2)Oc2ccc(cc2Cl)[C@H]1O` [VANCOMYCIN], the minimal inhibitory concentration (MIC) was 0.39 µg/mL (≈ 0.269 µM) in the experiment on Bacillus subtilis and 1.56 µg/mL (≈ 1.08 µM) in the experiment on Streptococcus pneumoniae. Besides, the minimal bactericidal concentration (MBC) against Staphylococcus aureus [5] was 1 µg/mL (≈ 0.69 µM); against Escherichia coli [8], 3.12 µg/mL (≈ 2.16 µM).
